Reference: EP4666996A1, “COMPOSITION CONTAINING PEPTIDES OF VEGETABLE ORIGIN” (Quiris Healthcare GmbH & Co. KG, priority 2024, dated 2025)
Like-named read-outs stand apart in the source and are kept apart here. No end group written: not given here.

Legend:
[1] = test system: BJ-5ta cells; assay: Cell viability assay (MTT); type: cell-based
Method: (§1) Fibroblast cells (BJ-5ta, CRL-4001) were cultured in complete medium, a 4:1 mixture of Dulbecco's medium and Medium 199 with supplements as 4 parts of Dulbecco's Modified Eagle's Medium containing 4 mM L-glutamine, 4.5 g/L glucose and 1.5 g/L sodium bicarbonate, 1 part of Medium 199 supplemented with 0.01 mg/mL hygromycin B 10% fetal bovine serum with incubation at 37 °C under 5% CO2 atmosphere.
A total of 10^4 fibroblasts/well were seeded in 96-well plates and treated with pea, rice and collagen peptides (from 1 to 20 mg/mL) and ascorbic acid (from 0.1 to 10 mg/mL), CR1, CR2, CP1, CP2, CP3, CP4 and CP5 peptides (from 25 to 500 µM) or H2O2 (from 0.1 to 1 mg/mL) or vehicle (H2O) in complete growth media for 48 h at 37 °C under 5% CO2 atmosphere. Subsequently, the treatment solvent was aspirated and 100 µL/well of 3-(4,5-dimethylthiazol-2-yl)-2,5-diphenyltetrazolium bromide (MTT) filtered solution added. After 2 h of incubation at 37 °C under 5% CO2 atmosphere, 0.5 mg/mL solution was aspirated and 100 µL/well of the lysis buffer (8 mM HCl + 0.5% NP-40 in DMSO) added. After 10 min of slow shaking, the absorbance at 575 nm was read on the Synergy H1 fluorescence plate reader (Biotek, Bad Friedrichshall, Germany).
In this example, the effect of pea and rice peptides was tested on BJ-5ta cells in a modified MTT assay as described above. […]

[2] = ABTS assay; type: biochemical
Method: The ABTS assay is based on the reduction of the 2,2-azino-bis-(3-ethylbenzothiazoline-6-sulfonic acid (ABTS) radical induced by antioxidants. The ABTS radical cation (ABTS+● was prepared by mixing a 7 mM ABTS solution (Sigma-Aldrich, Milan, Italy) with 2.45 mM potassium persulfate (1:1) and stored for 16 h at room temperature and in dark. To prepare the ABTS reagent, the ABTS+● was diluted in 5 mM phosphate buffer (pH 7.4) to obtain a stable absorbance of 0.700 (±0.02) at 730 nm. For the assay, 10 µL of samples were added to 140 µL of diluted the ABTS+● at the following final concentrations: 0.01 and 0.1 mg/mL for pea and rice peptides; 0.1, 1, 10 and 20 mg/mL for collagen peptides; 0.0001, 0.001 and 0.01 mg/mL for ascorbic acid; 1, 10, 25, 50, 100 µM for CR1, CP1 and CP2 peptides. The microplate was incubated for 30 min at 30 °C and the absorbance was read at 730 nm using a Synergy™ HT-multimode microplate reader (Biotek Instruments, Winooski, VT, USA). The TEAC values were calculated using a Trolox (Sigma-Aldrich, Milan, Italy) calibration curve (60-320 µM).
In this example, the antioxidant activity of pea and rice peptides was tested in vitro in an ABTS Assay as described above.
In this example, the antioxidant activity of peptides CP1, CP2 and CR1 (see Table 1 above) was tested in vitro in an ABTS Assay as described above.

[3] = FRAP assay; type: biochemical; conditions: pea and rice peptides 0.01-1 mg/mL; collagen 1-20 mg/mL; ascorbic acid 0.00001-0.1 mg/mL
[4] = test system: Caco-2 cells; assay: Trans-epithelial transport of digested and non-digested hydrolysates, LC-MS/MS of AP and BL samples; conditions: without H2O2; for common sequences in BL rice digested vs. BL rice not digested samples: rice hydrolysates; for common sequences in AP pea digested vs. BL pea digested samples: digested pea hydrolysate; for detection in the AP pea and BL pea samples: non-digested pea hydrolysate
Method: (§5) Caco-2 cells, obtained from INSERM (Paris, France) were routinely sub-cultured at 50% confluence and maintained at 37°C in a 5% CO2 atmosphere in DMEM containing 25 mM of glucose, 3.7 g/L of NaHCOs, 4 mM of stable L-glutamine, 1% non-essential amino acids, 100 U/L of penicillin and 100 µg/L of streptomycin (complete medium), supplemented with 10% heat-inactivated FBS. To facilitate the establishment of a confluent cell monolayer, cells were seeded on a Transwell at a density of 3.5 × 10^5 cells/cm^2 in complete medium supplemented with 10% FBS in both the AP and BL compartments for a period of 2 days. Cells were seeded, and on day three, they were moved to an FBS-free medium in the AP compartment. They were then allowed to differentiate for 18-21 days, with three weekly medium changes in between. Transepithelial electrical resistance (TEER) of differentiated Caco-2 cells was measured at 37 °C using the Millicell voltmeter device (Millipore Co., Billerica, MA, USA) both before and after the transport experiments for monitoring the integrity of the cell monolayers.
(§6) TEER measurement was used to verify the integrity and differentiation of the cell monolayer prior to transport experiments. Pea and rice peptides trans-epithelial transit was assessed in differentiated Caco-2 cells in transport buffer solution (137 mM NaCl, 5.36 mM KCl, 1.26 mM CaCl2, and 1.1 mM MgCl2, 5.5 mM glucose). The apical (AP) solutions were kept at pH 6.0 (buffered with 10 mM morpholinoethane sulfonic acid) and the basolateral (BL) solutions were kept at pH 7.4 (buffered with 10 mM N-2-hydroxyethylpiperazine-N-4-butanesulfonic acid) in order to replicate the pH conditions found in vivo in the small intestinal mucosa. Before the transport assay, cells were equilibrated in HBSS for 15 minutes at 37°C. In the AP compartment with the AP transport solution (500 µL) and the BL compartment with the BL transport solution (700 µL), rice and pea (5 mg/mL) were added. All BL and AP solutions were collected after two hours of absorption experiment carried out at 37°C, and they were kept at - 80°C before analysis. Transport experiments were performed in duplicate.
(§7) The enzymatic hydrolysis of pea and rice peptides was performed using pepsin and trypsin to simulate gastrointestinal digestion. For pepsin and trypsin digestion, the pH of the solution was adjusted to pH 2 and 8, respectively, by adding 1 M HCl or 1 M NaOH. The pepsin and trypsin solutions were added to the solution at a 1:100 (w/w) E/S ratio. After 60 min of peptic digestion at 37°C, pepsin was inactivated by adjusting the pH to 8; whereas the tryptic digestion (15 minutes) was blocked by heating the solution at 95 °C for 5 min (Lo et al., 2005). Collagen, pea and rice hydrolysates were passed through ultrafiltration membranes for the complete enzymes removal, using a Millipore UF system (Millipore, Bedford, MA, USA). Recovered peptides were lyophilized and stored at -80 °C for high-resolution LC-MS/MS analysis.

[5] = test system: Caco-2 cells
Method: as §5, §6, §7

[6] = FRAP assay; type: biochemical; conditions: synthesized peptides up to 200 µM
Method: The FRAP assay evaluates the ability of a sample to reduce ferric ion (Fe3^+) into ferrous ion (Fe2^+). Thus, 10 µL of samples were mixed with 140 µL of FRAP reagent until reaching the following concentrations: 0.01, 0.1 and 1 mg/mL for pea and rice peptides; 1, 10 and 20 mg/mL for collagen peptides; 0.00001, 0.0001, 0.001 and 0.1 mg/mL for ascorbic acid; 10, 100 and 200 µM for CR1 and CP5 peptides; 25, 50, 100 and 200 µM for CP1 and CP2 peptides. The FRAP reagent was prepared by mixing 1.3 mL of a 10 mM TPTZ (Sigma-Aldrich, Milan, Italy) solution in 40 mM HCl, 1.3 mL of 20 mM FeCl3 × 6H2O and 13 mL of 0.3 M acetate buffer (pH 3.6). The microplate was incubated for 30 min at 37 °C and the absorbance was read at 595 nm. The results were calculated by a Trolox (Sigma-Aldrich, Milan, Italy) standard curve obtained using different concentrations (3-400 µM)). Absorbances were recorded on a Synergy™ HT-multimode microplate reader.
In this example, the antioxidant activity of pea and rice peptides was tested in vitro in a FRAP Assay as described above.
In this example, the antioxidant activity of peptides CP1, CP2, CP5 and CR1 was tested in vitro in a FRAP Assay as described above.

[7] = test system: collagen; assay: Western blot analysis, collagen protein level; type: cell-based
Method: as §1
A total of 2.2 × 10^5 BJ-5ta cells/well were seeded on 24-well plates and incubated at 37 °C under a 5% CO2 atmosphere. The following day, cells were treated with pea, rice and collagen peptides (5 mg/mL), CR1, CR2, CP1, CP4 and CP5 (250 and 500 µM), CP2 (100, 250 and 500 µM) or vehicle (H2O) in a complete growth medium for 24 h. The day after, cells were stimulated with H2O2 (200 µM) or vehicle (H2O) for 1 h. […] Total proteins were quantified by Bradford method and 50 µg of total proteins loaded on a precast 7.5% Sodium Dodecyl Sulfate - Polyacrylamide (SDS-PAGE) gel at 130 V for 45 min. […] Target proteins, on milk or BSA blocked membrane, were detected by primary antibodies as follows: anti-collagen, anti-elastin, anti-phospho(Thr172)-AMPK, anti-phospho(Ser473)-Akt, anti-NF-κB and anti-β-actin. Secondary antibodies conjugated with HRP and a chemiluminescent reagent were used to visualize target proteins and their signal was quantified using the Image Lab Software (Biorad). […]

[8] = test system: elastin; assay: Western blot analysis, elastin protein level; type: cell-based
Method: as §1
A total of 2.2 × 10^5 BJ-5ta cells/well were seeded on 24-well plates and incubated at 37 °C under a 5% CO2 atmosphere. The following day, cells were treated with pea, rice and collagen peptides (5 mg/mL), CR1, CR2, CP1, CP4 and CP5 (250 and 500 µM), CP2 (100, 250 and 500 µM) or vehicle (H2O) in a complete growth medium for 24 h. The day after, cells were stimulated with H2O2 (200 µM) or vehicle (H2O) for 1 h. After each treatment, cells were scraped in 30 µL ice-cold lysis buffer [RIPA buffer + inhibitor cocktail + 1:100 PMSF + 1:100 Na-orthovanadate] and transferred in an ice-cold microcentrifuge tube. After centrifugation at 13.300g for 15 min at 4 °C, the supernatant was recovered and transferred into a new ice-cold tube. Total proteins were quantified by Bradford method and 50 µg of total proteins loaded on a precast 7.5% Sodium Dodecyl Sulfate - Polyacrylamide (SDS-PAGE) gel at 130 V for 45 min. Subsequently, the gel was pre-equilibrated with 0.04% SDS in H2O for 15 min at RT and transferred to a nitrocellulose membrane (Mini nitrocellulose Transfer Packs,) using a trans-Blot Turbo at 1.3 A, 25 V for 7 min. Target proteins, on milk or BSA blocked membrane, were detected by primary antibodies as follows: anti-collagen, anti-elastin, anti-phospho(Thr172)-AMPK, anti-phospho(Ser473)-Akt, anti-NF-κB and anti-β-actin. Secondary antibodies conjugated with HRP and a chemiluminescent reagent were used to visualize target proteins and their signal was quantified using the Image Lab Software (Biorad). The internal control β-actin was used to normalize loading variations. […]

[9] = test system: collagen; assay: ELISA assay, collagen secretion; type: cell-based, human; conditions: peptides of Table 1, BJ-5ta cells
Method: (§2) Cytokines, metalloproteases, collagen and elastin quantification was performed using human Authentikine® ELISA kits (Proteintech, Rosemont, USA) and Cusabio ELISA kits (Houston, TX, USA) according to the manufacturer's instruction and. Briefly, the supernatants collected from treated and H20-stimulated bj-5ta cells were centrifuged at 13,300 × g for 10 minutes at 4°C, then the pellet and insoluble material were discarded. For the experiments, 100 µL of samples were added to each well and the microplate was incubated for 2 hours at 37°C. After the incubation, the solutions were discarded and each well washed 4 times with 300 µL of Wash Buffer solution, then 100 µL of Detection antibody solution were added to each well and the microplate was incubated for 1 hours at 37°C. […] After 4 washes, the TMB substrate (100 µL/well) was added and reactions were stopped after 20 min with 50 µL of Stop Solution and the absorbance at 450 and 540 nm was measured using the Synergy H1 plate reader (BioTek Instruments).
(§3) In this example, the secretion of collagen and elastin with pea and rice peptides was tested in vitro by an ELISA assay as described above. Thereby, ECM stability is evaluated.
(§4) In this example, the secretion of collagen and elastin with the peptides of Table 1 was tested in vitro by an ELISA assay as described above. Thereby, ECM stability is evaluated.

[10] = test system: elastin; assay: ELISA assay, elastin secretion; type: cell-based, human
Method: as §2, §3, §4

[11] = 250 µM, screening among CR1, CR2, CP1, CP2, CP4, CP5
[12] = 500 µM, among CR1, CR2, CP1, CP2, CP4, CP5

OO [H2O2]
concentration up to which no cytotoxic effects ([1]; skin fibroblasts exposed to increasing concentration of H2O2): ≤ 400 µM

O=C1O[C@H]([C@@H](O)CO)C(O)=C1O [ascorbic acid]
ABTS radical scavenging activity, dependence on concentration ([2]; pea and rice peptides 0.01 and 0.1 mg/mL, collagen 0.1-20 mg/mL, ascorbic acid 0.0001-0.01 mg/mL): decreasing radical scavenging activity with increasing concentration
ferric reducing antioxidant power, dependence on concentration [3]: increase
concentrations with effects on cellular viability ([1]; BJ-5ta cells, 48 h): more than 1 mg/mL

AEDVGEEVER [CR1, AEDVGEEVER]
common sequences in BL rice digested vs. BL rice not digested samples [4]: found

AGFAGDDAPR [CR2, AGFAGDDAPR]
common sequences in BL rice digested vs. BL rice not digested samples [5]: found

DWLLGATGTGK (DVVLLGATGTGK; listed as Oryza sativa) [CR3]
common sequences in BL rice digested vs. BL rice not digested samples [4]: found

DWPEWVR [CP2]
ABTS radical scavenging activity compared with CR1 ([2]; synthesized peptides 1-100 µM): lower than with CR1
ABTS radical scavenging activity, dependence on concentration ([2]; synthesized peptides 1-100 µM): decreases with increasing concentration
ABTS radical scavenging activity ([2]; synthesized peptides 1-100 µM, compared to control C): lower than the one of the control C
ferric reducing antioxidant power compared with CR1 [6]: higher than with CR1
ferric reducing antioxidant power, dependence on concentration [6]: increases with increasing concentration
ferric reducing antioxidant power ([6]; compared to control C): higher than the control C
modulation of collagen protein level [7, 11]: highest modulation of collagen protein level
modulation of collagen protein level [7, 12]: highest modulation of collagen protein level
modulation of elastin protein level [8, 11]: highest modulation of elastin protein level
modulation of elastin protein level compared to CP4 and CP5 ([8]; 500 µM): higher modulation of elastin protein level compared to CP4 and CP5
modulation of elastin protein level [8, 12]: highest modulation of elastin protein level
stimulation of collagen secretion [9]: strongest stimulation of collagen secretion
stimulation of elastin secretion ([10]; CP2 at 100 µM versus other peptides at 500 µM): higher than for the other tested peptides at a concentration of 500 µM
stimulation of elastin secretion ([10]; peptides of Table 1, BJ-5ta cells): strongest stimulation of elastin secretion
common sequences in AP pea digested vs. BL pea digested samples [4]: found
detection in the AP pea and BL pea samples [4]: detected

ENIADAAR [CP3, ENIADAAR]
common sequences in AP pea digested vs. BL pea digested samples [4]: found
detection in the AP pea and BL pea samples [4]: detected

GSRQEEEEDEDEERQPR [CP4, GSRQEEEEDEDEERQPR]
common sequences in AP pea digested vs. BL pea digested samples [4]: found
detection in the AP pea and BL pea samples [4]: detected

SEQ-ID:2: peptide identified by MS in pea hydrolysate; sequence not printed in the text (DTSETWAIR; listed as Pisum sativum)
common sequences in AP pea digested vs. BL pea digested samples [4]: found
detection in the AP pea and BL pea samples [4]: detected

SEQ-ID:12: peptide identified by MS in pea hydrolysate; sequence not printed in the text (SSNNQLDQMPR; listed as Pisum sativum)
common sequences in AP pea digested vs. BL pea digested samples [4]: found
detection in the AP pea and BL pea samples [4]: detected

SEQ-ID:15: peptide identified by MS in pea hydrolysate; sequence not printed in the text (LDEAAEPAALER; listed as Pisum sativum)
common sequences in AP pea digested vs. BL pea digested samples [4]: found

SEQ-ID:35: peptide identified by MS in pea hydrolysate; sequence not printed in the text (SVFNGEVR; listed as Pisum sativum)
common sequences in AP pea digested vs. BL pea digested samples [4]: found
